Reference: patent US8618144B2, “Pyrrolidine-derived beta 3 adrenergic receptor agonists” (Merck Sharp & Dohme Corp, priority 2009, dated 2013)
Where a name gives a salt, the structure may show the parent alone. Read-outs that look alike come from different tables or passages of the source.

Target: T1, human β3 adrenergic receptor (Homo sapiens, UniProt P13945)
T1 construct: expressed in transfected cells; host or cells: Chinese hamster ovary (CHO) cells, stably transfected
Assay: Functional Assay: cAMP production in CHO cells stably transfected with cloned β3-adrenergic receptor (LANCE)
Type: cell-based
Conditions: CHO cells expressing β3 receptor
Protocol: Functional Assay: cAMP production in response to ligand is measured according to Barton et al (1991, Agonist-induced desensitization of D2 dopamine receptors in human Y-79 retinoblastoma cells. Mol. Pharmacol. […]) modified as follows. cAMP production is measured using a homogenous time-resolved fluorescence resonance energy transfer immunoassay (LANCE™, Perkin Elmer) according to the manufacture's instructions. Chinese hamster ovary (CHO) cells, stably transfected with the cloned β-adrenergic receptor (β1, β2 or β3) are harvested after 3 days of subculturing. Harvesting of cells is done with Enzyme-free Dissociation Media (Specialty Media). Cells are then counted and resuspended in assay buffer (Hank's Balanced salt solution supplemented with 5 mM HEPES, 0.1% BSA) containing a phosphodiesterase inhibitor (IBMX, 0.6 mM). The reaction is initiated by mixing 6,000 cells in 6 μL with 6 μL Alexa Fluor labeled cAMP antibody (LANCE™ kit) which is then added to an assay well containing 12 ul of compound (diluted in assay buffer to 2× final concentration). The reaction proceeds for 30 minutes at room temperature and is terminated by the addition of 24 μL detection buffer (LANCE™ kit). The assay plate is then incubated for 1 hour at room temperature and time-resolved fluorescence measured on a Perkin Elmer Envision reader or equivalent. The unknown cAMP level is determined by comparing fluorescence levels to a cAMP standard curve.
The non-selective, full agonist β-adrenergic ligand isoproterenol is used at all three receptors to determine maximal stimulation. The human β3 adrenergic receptor (AR) selective ligand (S)—N-[4-[2-[[2-hydroxy-3-(4-hydroxyphenoxy)propyl]amino]ethyl]-phenyl]-4-iodobenzenesulfonamide is used as a control in all assays. Isoproterenol is titrated at a final concentration in the assay of 10^−10 M to 10^−5 M and the selective ligand (S)—N-[4-[2-[[2-hydroxy-3-(4-hydroxyphenoxy)propyl]amino]ethyl]phenyl]-4-iodobenzenesulfonamide is titrated at the β3 receptor at concentration of 10^−10 M to 10^−5 M. Unknown ligands are titrated at all 3β-adrenergic receptor subtypes at a final concentration in the assay of 10^−10 M to 10^−5 M to determine the EC50. The EC50 is defined as the concentration of compound that gives 50% activation of its own maximum. Data are analyzed using Microsoft Excel and Graphpad Prism or an internally developed data analysis software package.

[1] = read-out: human β3 functional activity (EC50)
[2] = range classes, read-out: Human β3 EC50

T1 sequence (P13945 whole entry): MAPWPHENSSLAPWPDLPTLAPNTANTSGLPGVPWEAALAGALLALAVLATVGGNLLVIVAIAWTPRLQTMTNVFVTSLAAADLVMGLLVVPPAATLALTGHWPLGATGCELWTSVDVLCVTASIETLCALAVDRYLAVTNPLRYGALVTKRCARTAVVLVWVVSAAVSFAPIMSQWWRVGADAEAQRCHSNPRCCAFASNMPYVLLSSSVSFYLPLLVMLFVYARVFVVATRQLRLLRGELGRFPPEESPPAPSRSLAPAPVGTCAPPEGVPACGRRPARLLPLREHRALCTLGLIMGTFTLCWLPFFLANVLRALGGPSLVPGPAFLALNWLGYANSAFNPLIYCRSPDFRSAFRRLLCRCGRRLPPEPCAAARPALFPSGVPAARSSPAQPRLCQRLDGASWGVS

SMILES	EC50 [1] [nM]	EC50 [2] [nM]
Nc1nc(CC(=O)Nc2ccc(C[C@@H]3CC[C@H]([C@H](O)COc4ccccc4)N3)cc2)cs1 [Example 1, 2-(2-Amino-1,3-thiazol-4-yl)-N-[4-({(2S,5R)-5-[(1S)-1-hydroxy-2-phenoxyethyl]pyrrolidin-2-yl}methyl)phenyl]acetamide bis-trifluoroacetate salt]	< 1	–
Cc1csc(CC(=O)Nc2ccc(C[C@@H]3CC[C@H]([C@H](O)COc4ccccc4)N3)cc2)n1 [Example 3]	–	1 to 10
Cc1nc(CC(=O)Nc2ccc(C[C@@H]3CC[C@H]([C@H](O)COc4ccccc4)N3)cc2)c(C)s1 [Example 5]	–	1 to 10
O=C(Cc1nnc(-c2ccccc2)[nH]1)Nc1ccc(C[C@@H]2CC[C@H]([C@H](O)COc3ccccc3)N2)cc1 [Example 6]	–	< 1

Other lines, results leading:

EC50 [1] [nM]	EC50 [2] [nM]	SMILES
100 to 1000	–	Nc1nc(CC(=O)Nc2ccc(C[C@H]3CC[C@H]([C@H](O)COc4ccccc4)N3)cc2)cs1 [Example 11, 2-(2-Amino-1,3-thiazol-4-yl)-N-[4-({(2R,5R)-5-[(1S)-1-hydroxy-2-phenoxyethyl]pyrrolidin-2-yl}methyl)phenyl]acetamide bis trifluoroacetate salt]
< 10	–	O=S(=O)(Nc1ccc(C[C@@H]2CC[C@H]([C@H](O)COc3ccccc3)N2)cc1)c1ccc(-c2nc(-c3ccc(C(F)(F)F)cc3)cs2)cc1 [Example 12, N-[4-({(2S,5R)-5-[(1S)-1-Hydroxy-2-phenoxyethyl]pyrrolidin-2-yl}methyl)phenyl]-4-{4-[4-(trifluoromethyl)phenyl]-1,3-thiazol-2-yl}benzenesulfonamide trifluoroacetate salt]
< 10	–	O=S(=O)(Nc1ccc(C[C@@H]2CC[C@H]([C@H](O)COc3ccccc3)N2)cc1)c1ccc(I)cc1 [Example 13]
< 1	–	CCCCCCNC(=O)Nc1ccc(S(=O)(=O)Nc2ccc(C[C@@H]3CC[C@H]([C@H](O)COc4ccccc4)N3)cc2)cc1 [Example 14, 4-{[(Hexylamino)carbonyl]amino}-N-[4-({(2S,5R)-5-[(1S)-1-hydroxy-2-phenoxyethyl]pyrrolidin-2-yl}methyl)phenyl]benzenesulfonamide trifluoroacetate salt]
< 1	–	Nc1ncn(CC(=O)Nc2ccc(C[C@@H]3CC[C@H]([C@H](O)COc4ccccc4)N3)cc2)n1 [Example 15, 2-(3-Amino-1H-1,2,4-triazol-1-yl)-N-[4-({(2S,5R)-5-[(1S)-1-hydroxy-2-phenoxyethyl]pyrrolidin-2-yl}methyl)phenyl]acetamide trifluoroacetate salt]
